We go through 28 compounds from US20160159814A1, “GLYCINE TRANSPORTER INHIBITOR” (TAISHO PHARMACEUTICAL CO., LTD., priority 2013, published 2016).

For orientation: IC50 means the concentration at which inhibition is half-maximal. The low end stands for inhibition by little substance, the high end for a need for much substance.

Structures are written as SMILES.

For the first assay, the target named is T1, human type 1 glycine transporter (GlyT1) (Homo sapiens, UniProt P48067).
T1 construct: T98G cells (glioma cells) expressing human type 1 glycine transporter (GlyT1) were used; endogenous in cells; host or cells: T98G cells (human glioma cells)
T1 sequence (P48067 1-706): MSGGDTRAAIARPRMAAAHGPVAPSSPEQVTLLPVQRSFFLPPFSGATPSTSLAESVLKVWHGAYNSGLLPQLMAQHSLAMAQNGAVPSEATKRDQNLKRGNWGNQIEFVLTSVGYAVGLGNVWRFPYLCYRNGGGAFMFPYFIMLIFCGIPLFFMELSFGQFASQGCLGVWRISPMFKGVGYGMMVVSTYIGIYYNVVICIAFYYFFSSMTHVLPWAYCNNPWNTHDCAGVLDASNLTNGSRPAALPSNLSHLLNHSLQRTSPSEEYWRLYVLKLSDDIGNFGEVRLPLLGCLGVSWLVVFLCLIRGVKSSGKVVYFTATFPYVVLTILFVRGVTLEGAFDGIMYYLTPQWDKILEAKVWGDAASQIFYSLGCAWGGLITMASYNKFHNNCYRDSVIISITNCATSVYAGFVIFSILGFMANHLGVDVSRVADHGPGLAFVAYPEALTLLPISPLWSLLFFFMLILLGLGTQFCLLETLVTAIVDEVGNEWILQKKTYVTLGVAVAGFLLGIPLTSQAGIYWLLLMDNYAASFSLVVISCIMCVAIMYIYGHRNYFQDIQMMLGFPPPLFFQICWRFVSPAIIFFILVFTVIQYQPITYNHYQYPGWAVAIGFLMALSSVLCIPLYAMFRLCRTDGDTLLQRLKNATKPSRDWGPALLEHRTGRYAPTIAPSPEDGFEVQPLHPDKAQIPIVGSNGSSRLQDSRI
The assay is described as follows: Glycine uptake inhibition experiment ([3H] glycine uptake in T98G cells expressing GlyT1). It counts as cell-based.
Conditions: not given
The procedure, abridged:
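T98G glioma cells expressing human GlyT1 were pretreated 10 min with compound in HEPES buffer pH 7.4 (0.2% BSA), then incubated with compound plus 250 nM final [3H]glycine for 15 min at room temperature. Intracellular radioactivity was counted after NaOH lysis; 10 μM ALX5407 defined non-specific uptake. IC50 came from 10^−9–10^−5 M curves.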
`N#Cc1cc(CN2C(=O)C(F)(F)c3c(C(O)C(F)F)cccc32)c(Cl)cn1` (single isomer, unassigned) [Compound 220] displayed an IC50 of 170 nM. `C[C@H](O)c1cccc2c1C(F)(F)C(=O)N2Cc1ccc(C(F)(F)F)nc1Cl` [Compound 239, 1-{[2-chloro-6-(trifluoromethyl)pyridin-3-yl]methyl}-3,3-difluoro-4-[(1S)-1-hydroxyethyl]-1,3-dihydro-2H-indol-2-one] yielded a concentration for half-maximal inhibition (IC50) of 220 nM. `C[C@H](O)c1cccc2c1C(F)(F)C(=O)N2Cc1ccc(Cl)c(Cl)n1` [Compound 244, 1-[(5,6-dichloropyridin-2-yl)methyl]-3,3-difluoro-4-[(1S)-1-hydroxyethyl]-1,3-dihydro-2H-indol-2-one] displayed a concentration for half-maximal inhibition (IC50) of 9.7 nM. Turning to `C[C@H](O)c1cccc2c1C(F)(F)C(=O)N2Cc1cc(Cl)nc(C#N)c1` [Compound 187, 6-chloro-4-({3,3-difluoro-4-[(1S)-1-hydroxyethyl]-2-oxo-2,3-dihydro-1H-indol-1-yl}methyl)pyridine-2-carbonitrile], half-maximal inhibition (IC50) required 34 nM. `COc1nc(Cl)ccc1CN1C(=O)C(F)(F)c2c([C@H](C)O)cccc21` [Compound 230, 1-[(6-chloro-2-methoxypyridin-3-yl)methyl]-3,3-difluoro-4-[(1S)-1-hydroxyethyl]-1,3-dihydro-2H-indol-2-one] gave an IC50 of 63 nM. In turn, `C[C@H](O)c1cccc2c1C(F)(F)C(=O)N2Cc1cnc(Cl)c(Cl)c1` [Compound 200, 1-[(5,6-dichloropyridin-3-yl)methyl]-3,3-difluoro-4-[(1S)-1-hydroxyethyl]-1,3-dihydro-2H-indol-2-one] came in with a concentration for half-maximal inhibition (IC50) of 8.6 nM.

Regarding `O=C1N(Cc2cncc(C3CC3)c2)c2cccc(C(O)C(F)F)c2C1(F)F` (single isomer, unassigned) [Compound 179, 1-[(5-cyclopropylpyridin-3-yl)methyl]-4-(2,2-difluoro-1-hydroxyethyl)-3,3-difluoro-1,3-dihydro-2H-indol-2-one], the IC50 stood at 480 nM. Same read-out and setting: to `C[C@H](O)c1cccc2c1C(F)(F)C(=O)N2Cc1ccc(F)c(C#N)n1` [Compound 236, 6-({3,3-difluoro-4-[(1S)-1-hydroxyethyl]-2-oxo-2,3-dihydro-1H-indol-1-yl}methyl)-3-fluoropyiidine-2-carbonitrile] belongs 4 nM.

The same assay, now with this note: glycine uptake inhibition.
For `C[C@H](O)c1cccc2c1C(F)(F)C(=O)N2Cc1nc2ccccc2[nH]c1=O` [Compound 98, 3-({3,3-difluoro-4-[(1S)-1-hydroxyethyl]-2-oxo-2,3-dihydro-1H-indol-1-yl}methyl) quinoxalin-2(1H)-one], 34 nM corresponded to half-maximal inhibition (IC50). Consider `O=C1N(Cc2cccc(Cl)n2)c2cccc(C3(O)CC3)c2C1(F)F` [Compound 26, 1-[(6-chloropyridin-2-yl)methyl]-3,3-difluoro-4-(1-hydroxycyclo-propyl)-1,3-dihydro-2H-indol-2-one], for which inhibition was half-maximal at 1500 nM (IC50). On the same count and under the same terms, in the case of `N#Cc1cccc(CN2C(=O)C(F)(F)c3c(C(O)C(F)(F)F)cccc32)n1` (single isomer, unassigned) [Compound 18, 6-{[3,3-difluoro-2-oxo-4-(2,2,2-trifluoro-1-hydroxyethyl)-2,3-dihydro-1H-indol-1-yl]methyl}pyridine-2-carbonitrile] it was 3300 nM. The compound `C[C@H](O)c1cccc2c1C(F)(F)C(=O)N2Cc1nc2ccccc2[nH]1` [Compound 88, 1-(1H-benzimidazol-2-ylmethyl)-3,3-difluoro-4-[(1S)-1-hydroxyethyl)-1,3-dihydro-2H-indol-2-one] gave an IC50 of 87 nM. For `N#Cc1cc(CN2C(=O)C(F)(F)c3c(C(O)C(F)(F)F)cccc32)ccn1` (single isomer, unassigned) [Compound 21, 4-{[3,3-difluoro-2-oxo-4-(2,2,2-trifluoro-1-hydroxyethyl)-2,3-dihydro-1H-indol-1-yl]methyl}pyridine-2-carbonitrile], the IC50 worked out at 71 nM. `C[C@H](O)c1cccc2c1C(F)(F)C(=O)N2Cc1ccnc(C(F)F)c1` [Compound 117, 1-{[2-(difluoromethyl)pyridin-4-yl]methyl}-3,3-difluoro-4-[(1S)-1-hydroxyethyl]-1,3-dihydro-2H-indol-2-one] displayed a half-inhibitory concentration (IC50) of 31 nM. Compound `C[C@H](O)c1cccc2c1C(F)(F)C(=O)N2Cc1nc2ccccc2s1` [Compound 73, 1-(1,3-benzothiazol-2-ylmethyl)-3,3-difluoro-4-[(1S)-1-hydroxyethyl]-1,3-dihydro-2H-indol-2-one] showed an IC50 of 37 nM. In turn, `CC(O)c1cccc2c1C(F)(F)C(=O)N2Cc1cncc(Cl)c1` (single isomer, unassigned) [Compound 6, 1-[(5-chloropyridin-3-yl)methyl]-3,3-difluoro-4-(1-hydroxyethyl)-1,3-dihydro-2H-indol-2-one] displayed an IC50 of 3700 nM. With `O=C1N(Cc2cncc(Cl)c2)c2cccc(C(O)C(F)(F)F)c2C1(F)F` (single isomer, unassigned) [Compound 23, 1-[(5-chloropyridin-3-yl)methyl]-3,3-difluoro-4-(2,2,2-trifluoro-1-hydroxyethyl)-1,3-dihydro-2H-indol-2-one], the IC50 turned out to be 38 nM. The compound `C[C@H](O)c1cccc2c1C(F)(F)C(=O)N2Cc1ccc2ncccc2n1` [Compound 78, 3,3-difluoro-4-[(1S)-1-hydroxyethyl]-1-(1,5-naphthyridin-2-ylmethyl)-1,3-dihydro-2H-indol-2-one] had an IC50 of 320 nM. The compound `O=C1N(Cc2nc3ccccc3[nH]c2=O)c2cccc([C@@H](O)C(F)(F)F)c2C1(F)F` [Compound 140, 3-({3,3-difluoro-2-oxo-4-[(1R)-2,2,2-trifluoro-1-hydroxyethyl]-2,3-dihydro-1H-indol-1-yl}methyl) quinoxalin-2(1H)-one] yielded an IC50 of 33 nM. With `C[C@H](O)c1cccc2c1C(F)(F)C(=O)N2Cc1cncc(C#N)c1` [Compound 70, 5-({3,3-difluoro-4-[(1S)-1-hydroxyethyl]-2-oxo-2,3-dihydro-1H-indol-1-yl}methyl)pyridine-3-carbonitile], the IC50 stood at 91 nM. As for `Cn1c(CN2C(=O)C(F)(F)c3c([C@@H](O)C(F)(F)F)cccc32)cc2ccccc2c1=O` [Compound 142, 3-({3,3-difluoro-2-oxo-4-[(1R)-2,2,2-trifluoro-1-hydroxyethyl]-2,3-dihydro-1H-indol-1-yl}methyl)-2-methylisoquinan-1(2H)-one], the 50% inhibitory concentration (IC50) was found to be 130 nM. With `C[C@H](O)c1cccc2c1C(F)(F)C(=O)N2Cc1ccc2nonc2c1` [Compound 76, 1-(2,1,3-benzoxadiazol-5-ylmethyl)-3,3-difluoro-4-[(1S)-1-hydroxyethyl]-1,3-dihydro-2H-indol-2-one], inhibition was half-maximal at 8.7 nM (IC50).

Take `O=C1N(Cc2cncc(Cl)n2)c2cccc([C@@H](O)C(F)(F)F)c2C1(F)F` [Compound 47, 1-[(6-chloropyrazin-2-yl)methyl]-3,3-difluoro-4-[(1R)-2,2,2-trifluoro-1-hydroxyethyl]-1,3-dihydro-2H-indol-2-one]: the half-maximal inhibitory concentration (IC50) worked out at 40 nM.

The compound `C[C@H](O)c1cccc2c1C(F)(F)C(=O)N2Cc1ccccc1` [Compound 54, 1-benzyl-3,3-difluoro-4-[(1S)-1-hydroxyethyl]-1,3-dihydro-2H-indol-2-one] registered a half-inhibitory concentration (IC50) of 20 nM.

The same assay, now with this note: table section whose head prints (μm).
In turn, `N#Cc1nc(CN2C(=O)C(F)(F)c3c(C(O)C(F)F)cccc32)ccc1C(F)(F)F` (single isomer, unassigned) [Compound 270, 6-{[4-(2,2-difluoro-1-hydroxyethyl)-3,3-difluoro-2-oxo-2,3-dihydro-1H-indol-1-yl]methyl}-3-(trifluoromethyl) pyridine-2-carbonitrile] registered a half-inhibitory concentration (IC50) of 8.4 nM.

The compound `O=C1N(Cc2cccc(C(F)(F)F)n2)c2cccc(C(O)C(F)F)c2C1(F)F` (single isomer, unassigned) [Compound 257, 4-(2,2-difluoro-1-hydroxyethyl)-3,3-difluoro-1-{[6-(trifluoromethyl)pyridin-2-yl]methyl)-1,3-dihydro-2H-indol-2-one] came in with a half-maximal inhibitory concentration (IC50) of 110 nM.

`N#Cc1nc(CN2C(=O)C(F)(F)c3c(C(O)C(F)F)cccc32)ccc1Cl` (single isomer, unassigned) [Compound 271, 3-chloro-6-{[4-(2,2-difluoro-1-hydroxyethyl)-3,3-difluoro-2-oxo-2,3-dihydro-1H-indol-1-yl]methyl}pyridine-2-carbonitrile] gave a concentration for half-maximal inhibition (IC50) of 5.5 nM. `C[C@H](O)c1cccc2c1C(F)(F)C(=O)N2Cc1cc(C#N)c(F)cn1` [Compound 262, 2-{(3,3-difluoro-4-[(1S)-1-hydroxyethyl]-2-oxo-2,3-dihydro-1H-indol-1-yl}methyl)-5-fluoropyridine-4-carbonitrile] showed a half-inhibitory concentration (IC50) of 62 nM.
